Assay results taken from US9464064B2, “HCV helicase inhibitors and methods of use thereof” (University of Kansas, priority 2011, dated 2016).

Biological target: T1, HCV NS3 helicase NS3h_1b(con1) (Hepatitis C virus genotype 1b, UniProt Q9WMX2)
T1 construct: truncated C-terminally His-tagged NS3 proteins lacking the N-terminal protease, called NS3h; His-tag (C); made in house
Assay: MBHA screen of NCI mechanistic set library at 20 μM (percent inhibition, compound interference)
Type: biochemical
Conditions: compounds at 20 μM; for Inh. (%) (Inhibition): calculated from Equation 1
Procedure, shortened: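 Molecular beacon-based DNA unwinding assay; compounds screened at 20 μM in triplicate, with DMSO-only negative and 500 nM dT20 positive controls. Fluorescence (ex 643/em 670 nm) was read before and 30 min after adding ATP to 1 mM. Percent inhibition came from the change relative to DMSO controls; interference from pre-ATP fluorescence versus DMSO controls.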

[1] = MBHA with DNA substrate, assay interference calculated with Equation 2
[2] = assay interference calculated with Equation 2 (fluorescence vs DMSO-only controls before ATP)

T1 sequence (Q9WMX2 1192-1657): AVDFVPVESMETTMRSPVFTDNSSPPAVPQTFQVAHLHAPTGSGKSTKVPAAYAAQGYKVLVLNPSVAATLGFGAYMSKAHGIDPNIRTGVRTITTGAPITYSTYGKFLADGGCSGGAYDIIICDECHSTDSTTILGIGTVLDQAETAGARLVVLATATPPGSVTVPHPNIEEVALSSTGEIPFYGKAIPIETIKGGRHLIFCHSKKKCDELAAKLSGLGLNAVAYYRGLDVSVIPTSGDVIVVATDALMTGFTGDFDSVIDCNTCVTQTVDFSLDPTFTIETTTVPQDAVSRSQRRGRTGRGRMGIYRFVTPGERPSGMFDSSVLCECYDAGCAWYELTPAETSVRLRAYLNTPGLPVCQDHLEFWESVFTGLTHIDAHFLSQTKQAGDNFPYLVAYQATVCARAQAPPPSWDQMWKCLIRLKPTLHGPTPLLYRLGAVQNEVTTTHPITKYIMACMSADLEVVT

Structure (SMILES) | Int.* (Ratio) (Interference) [1] | Inh. (%) (Inhibition) (MBHA with DNA substrate) | Inh. (%) (Inhibition) (MBHA with a DNA substrate) | Int.* (Ratio) (Interference) [2]
O=C(N=Nc1c(O)[nH]c2c(Cl)cc(Cl)cc12)c1ccccc1O [Compound 320864] | 0.80 | 4.4 |  | 
COc1ccc2c(c1[N+](=O)[O-])CC[C@@H]1[C@@H]2CC[C@]2(C)C(=O)CC[C@@H]12 [Compound 321803] | 1.02 | −11.7 |  | 
C/C(=N\N=C(/[Se])N1CC2CCC(CC2)C1)c1ccccn1 [Compound 323241] |  |  | 10.7 | 0.90
CCCCCCCCCCCCCCCCCCOCC(COP(=O)([O-])OCC[N+](C)(C)C)OC (centres unmarked) [Compound 324368] | 0.85 | −15.0 |  | 
CCCCS(=N)(=O)CCC(N)C(=O)O (centres unmarked) [Compound 326231] | 0.94 | 28.0 |  | 
Clc1cc2nc[nH]c2cc1Cl [Compound 326397] | 1.06 | 1.6 |  | 
CN(C)c1ccc(/C=N/N=C2\C(=O)Nc3c(Cl)cc(Cl)cc32)cc1 [Compound 327697] | 1.22 | −10.2 |  | 
C[C@@H]1CCOC(=O)/C=C/C=C\C(=O)O[C@@H]2C[C@H]3O[C@@H]4[C@@H]5O[C@]5(C)[C@H](O)C[C@]4(COC(=O)[C@H]1O)[C@]2(C)[C@@]31CO1 [Compound 328166] | 1.04 | 20.7 |  | 
CC(=O)OC1C(O)C(C)OC(OC2C(OC(=O)C3CCC4C(C3)OC3(CC(OC(=O)/C=C/c5ccccc5)C(C)CO3)C43CO3)OC(C)C(O)C2OC(C)=O)C1O (centres unmarked) [Compound 328426] |  |  | −3.0 | 1.00
Cc1c(Cl)cccc1NC(=O)c1cccc([N+](=O)[O-])c1O [Compound 328477] | 0.96 | −0.8 |  | 
CC1(C)CC2=NO[Se]3=C2C(=NO3)C1 [Compound 328587] | 0.95 | −1.3 |  | 
CCOc1cccc(/C=N/N=C2\C(=O)Nc3c(Cl)cc(Cl)cc32)c1O [Compound 329277] | 1.08 | −11.4 |  | 
O=C1Nc2c(Cl)cc(Cl)cc2C1=NN=Cc1ccco1 [Compound 329279] | 0.94 | 1.9 |  | 
C=C1C(=O)O[C@@H]2/C=C(/C)C(=O)C[C@H]3OC(C)(C)O[C@]3(C)C[C@@H](OC(=O)/C(C)=C\C)[C@@H]12 [Compound 329696] | 0.81 | 32.6 |  | 
COC1CC(C)C(OC)c2cc(O)cc(c2O)NC(=O)/C(C)=C/C=C\C(C)C(OC(N)=O)/C(C)=C/C(C)C1OC (centres unmarked) [Compound 330500] |  |  | 12.0 | 1.04
COc1cc2c(c(O)c1OC)-c1c(cc(OC)c(OC)c1OC)C[C@@H](C)[C@@H](C)C2 [Compound 330515] | 0.95 | 4.3 |  | 
COc1cc2c(c(OC)c1OC)-c1c(cc3c(c1OC)OCO3)CC(C)C(C)(O)C2OC(=O)c1ccccc1 (centres unmarked) [Compound 330516] | 0.92 | 13.8 |  | 
CC(=O)O[C@H]1C(=O)[C@@]2(C)[C@H]([C@H](OC(=O)c3ccccc3)[C@]3(O)C[C@H](O)C(C)=C1C3(C)C)[C@]1(OC(C)=O)CO[C@@H]1C[C@@H]2O [Compound 330753] |  |  | −24.1 | 0.88
CCOC(=O)Nc1cc2c(c(N)n1)N=C(c1ccccc1)CN2 [Compound 330770] | 0.91 | −1.6 |  | 
CCN(CC)CCCC(C)NC(=O)c1ccc2c(c1)C(=O)c1ccccc1C2=O.Cl (centres unmarked) [Compound 331757] | 0.93 | −16.9 |  | 
CO[C@@H](/C(C)=C/C=C/C(C)=C/c1coc(C)n1)[C@@H](C)[C@@H]1C[C@H](O)[C@@]2(C)O[C@@H]2/C=C/[C@@H](C)[C@H]2C[C@H](CC(=O)O2)C[C@@H]2O[C@H]2C(=O)O1 [Compound 332598] | 0.98 | −11.7 |  | 
COC(=O)NC1C(C)OC(OC2C/C=C(\C)C3C=C[C@H]4C(OC5CC(OC6CCC(OC7CC(O)C(OC8CCC(O)C(C)O8)C(C)O7)C(C)O6)C(OC(C)=O)C(C)O5)C(C)CC(C)[C@@H]4[C@@]3(C)C([O-])=C3C(=O)OC4(CC(C=O)=CC(O)[C@@H]4/C=C\2C)C3=O)CC1(C)[N+](=O)[O-].[Na+] (some centres unmarked) [Compound 333856] |  |  | −5.2 | 0.95

Structure (SMILES) | Int.* (Ratio) (Interference) [1] | Inh. (%) (Inhibition) (MBHA with DNA substrate) | Inh. (%) (Inhibition) (MBHA with a DNA substrate) | Int.* (Ratio) (Interference) [2]
Cc1c2ccnc(C(N)=O)c2c(C)c2c1[nH]c1ccccc12.Cl [Compound 335142] | 0.95 | −1.5 |  | 
O=C1NC(=S)NC(=O)C1C(=O)Nc1ccccc1 [Compound 336628] | 0.90 | 17.4 |  | 
O=C1c2ccccc2-c2c1c1ccccc1c(=O)n2Cc1ccccc1 [Compound 337612] | 0.97 | −16.5 |  | 
C(=N\NC1=NCCN1)/c1c2ccccc2c(/C=N/NC2=NCCN2)c2ccccc12 [Compound 337766] | 0.65 | 70.0 |  | 
CN(C)c1ccc2c(SCC(=O)OCC(=O)[C@@]3(O)CC[C@H]4[C@@H]5CCC6=CC(=O)C=C[C@]6(C)[C@H]5C(=O)C[C@@]43C)c3ccc(N(C)C)cc3nc2c1 [Compound 337851] | 0.29 | 2.3 |  | 
Oc1cc2c3c(c1)c1cc4c(cc1c[n+]3CC2)OCO4.[Cl-] [Compound 338259] | 0.93 | 45.5 |  | 
COc1nc(C(Cl)(Cl)Cl)c(Cl)c(OC)c1Cl [Compound 338720] |  |  | 7.0 | 0.93
Nc1ccc(S(=O)(=O)Nc2cnc3c(Cl)cccc3n2)cc1 [Compound 339004] | 0.89 | 18.5 |  | 
O=C(CCCN1CCC(C(O)c2ccc(F)cc2)CC1)c1ccc(F)cc1 (centres unmarked) [Compound 343513] | 0.91 | −8.7 |  | 
NP(=O)(Oc1c2occc2cc2ccc(=O)oc12)N(CCCl)CCCl (centres unmarked) [Compound 345081] |  |  | 9.2 | 0.95
CC1Oc2cc3c(-c4c(O)cc(O)c5c(O)c6c(cc45)OC(C)C(C)C6=O)c(O)cc(O)c3c(O)c2C(=O)C1C (centres unmarked) [Compound 345647] | 0.80 | −17.6 |  | 
O=[Se]([O-])[O-].[Na+].[Na+] [Compound 347466] | 0.89 | 27.4 |  | 
O=C1N[C@@H]2C(=C[C@H](O)[C@@H](O)[C@H]2O)c2cc3c(cc21)OCO3 [Compound 349155] | 0.98 | 4.1 |  | 
O=C1N[C@H]2[C@H](O)[C@H](O)[C@@H](O)[C@H](O)[C@@H]2c2cc3c(c(O)c21)OCO3 [Compound 349156] | 0.95 | −10.2 |  | 
CC(O)CCC(=O)c1ccoc1 (centres unmarked) [Compound 349438] |  |  | 10.5 | 1.01
COC1=C(C)C(=O)C2=C(C1=O)C(CO)N1C(C#N)C3CC4C(C1C2N1CCOC41)N3C (centres unmarked) [Compound 349644] |  |  | 7.1 | 0.91
Cc1ccc(S(=O)(=O)ON=C2CC(c3ccccc3)N(C)C(c3ccccc3)C2)cc1 (centres unmarked) [Compound 351306] | 0.92 | 25.4 |  | 
COc1cc(C(C)c2cc3c(cc2OCCO)OCO3)cc(OC)c1OC (centres unmarked) [Compound 352876] |  |  | −19.4 | 1.08
Nc1ncnc2c([C@@H]3O[C@H](CO)[C@@H](O)[C@H]3O)c[nH]c12 [Compound 352890] |  |  | 7.0 | 0.94
CCOc1ccc(C(C)c2cc3c(cc2OC)OCO3)cc1 (centres unmarked) [Compound 353648] | 0.94 | 1.7 |  | 
C=Cc1cc(OC)c2c(c1)c(=O)oc1c2cc(OC)c2c(O)ccc(C3OC(C)C(O)C(C)(O)C3O)c21 (centres unmarked) [Compound 354844] | 0.93 | 32.6 |  | 
